According to the supplement of paper PMC10307832:

Columns and labels:
Test in all cases: relative viability (nuclei count vs DMSO), 5 days (fraction); higher = more cells survive
[1] = test system: A-427
Method in brief: (§1)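 Cells from lung cancer lines were seeded into 1536-well plates and, one day later, dosed by pin tool. Treatments were either a single drug or a fixed dose of an anchor drug with five library-drug doses (not always all listed) in √10 steps. After 5 days, nuclei were stained in a one-step fixation (final 0.05% Triton X-100, 1% formaldehyde, 1 ug/ml Hoechst) and counted on 4× images, and relative viability is the treated-to-vehicle nuclei ratio, as the median of duplicate plates.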

[2] = test system: ABC-1
Method in brief: as §1

[3] = test system: BEN
Method in brief: as §1

[4] = test system: CAL-12T
Method in brief: as §1

[5] = test system: HARA
Method in brief: as §1

[6] = test system: LCLC-103H
Method in brief: as §1

[7] = test system: LOU-NH91
Method in brief: as §1

[8] = test system: NCI-H1651
Method in brief: as §1

[9] = test system: NCI-H1666
Method in brief: as §1

[10] = test system: NCI-H1734
Method in brief: as §1

[11] = test system: NCI-H1944
Method in brief: as §1

[12] = test system: NCI-H1975
Method in brief: as §1

[13] = test system: NCI-H2085
Method in brief: as §1

[14] = test system: NCI-H2126
Method in brief: as §1

[15] = test system: NCI-H460
Method in brief: as §1

[16] = test system: NCI-H520
Method in brief: as §1

[17] = test system: NCI-H596
Method in brief: as §1

[18] = test system: NCI-H647
Method in brief: as §1

[19] = test system: NCI-H661
Method in brief: as §1

[20] = test system: NCI-H727
Method in brief: as §1

[21] = test system: NCI-H838
Method in brief: as §1

[22] = test system: RERF-LC-KJ
Method in brief: as §1

[23] = test system: SW 900
Method in brief: as §1

With Cc1cn(-c2cc(NC(=O)c3ccc(C)c(Nc4nccc(-c5cccnc5)n4)c3)cc(C(F)(F)F)c2)cn1 [Nilotinib] + COc1cc2c(Oc3ccc(NC(=O)C4(C(=O)Nc5ccc(F)cc5)CC4)cc3F)ccnc2cc1OCCCN1CCOCC1 [Foretinib] (partner 0.25 µM) the relative viability ([1]; first compound 0.001 µM) was 0.945, the relative viability ([1]; first compound 0.003162 µM) was 1.09 and the relative viability ([1]; first compound 0.01 µM) was 1.03. It also gave a relative viability ([1]; first compound 0.03162 µM) of 0.792, a relative viability ([1]; first compound 0.1 µM) of 0.476 and a relative viability ([2]; first compound 0.001 µM) of 0.963. It also gave a relative viability ([2]; first compound 0.003162 µM) of 1.32, a relative viability ([2]; first compound 0.01 µM) of 1.17 and a relative viability ([2]; first compound 0.03162 µM) of 0.918. It also gave a relative viability ([2]; first compound 0.1 µM) of 1.32, a relative viability ([3]; first compound 0.001 µM) of 0.829 and a relative viability ([3]; first compound 0.003162 µM) of 0.674. The relative viability ([3]; first compound 0.01 µM) was 0.494, the relative viability ([3]; first compound 0.03162 µM) was 0.647 and the relative viability ([3]; first compound 0.1 µM) was 0.285. It also gave a relative viability ([4]; first compound 0.001 µM) of 1.1, a relative viability ([4]; first compound 0.003162 µM) of 1.09 and a relative viability ([4]; first compound 0.01 µM) of 1.17. It also gave a relative viability ([4]; first compound 0.1 µM) of 0.87, a relative viability ([5]; first compound 0.001 µM) of 0.922 and a relative viability ([5]; first compound 0.003162 µM) of 0.646. It also gave a relative viability ([5]; first compound 0.01 µM) of 0.817, a relative viability ([5]; first compound 0.03162 µM) of 0.811 and a relative viability ([5]; first compound 0.1 µM) of 0.943. It also gave a relative viability ([6]; first compound 0.001 µM) of 0.737, a relative viability ([6]; first compound 0.003162 µM) of 0.86 and a relative viability ([6]; first compound 0.01 µM) of 0.837. It also gave a relative viability ([6]; first compound 0.03162 µM) of 0.581, a relative viability ([6]; first compound 0.1 µM) of 0.67 and a relative viability ([7]; first compound 0.001 µM) of 0.995. It also gave a relative viability ([7]; first compound 0.003162 µM) of 0.961, a relative viability ([7]; first compound 0.01 µM) of 0.985 and a relative viability ([7]; first compound 0.03162 µM) of 0.935. The relative viability ([7]; first compound 0.1 µM) was 0.92, the relative viability ([8]; first compound 0.001 µM) was 0.82 and the relative viability ([8]; first compound 0.003162 µM) was 0.922. It also gave a relative viability ([8]; first compound 0.01 µM) of 1.19, a relative viability ([8]; first compound 0.03162 µM) of 0.761 and a relative viability ([8]; first compound 0.1 µM) of 0.79. The relative viability ([9]; first compound 0.001 µM) was 0.929, the relative viability ([9]; first compound 0.003162 µM) was 0.996 and the relative viability ([9]; first compound 0.03162 µM) was 0.911. It also gave a relative viability ([9]; first compound 0.1 µM) of 1.07, a relative viability ([10]; first compound 0.001 µM) of 0.771 and a relative viability ([10]; first compound 0.01 µM) of 0.895. For the same molecule, the relative viability ([10]; first compound 0.03162 µM) was 0.646, the relative viability ([10]; first compound 0.1 µM) was 0.628 and the relative viability ([11]; first compound 0.001 µM) was 0.907. The relative viability ([11]; first compound 0.003162 µM) was 1.05, the relative viability ([11]; first compound 0.01 µM) was 1.06 and the relative viability ([11]; first compound 0.03162 µM) was 0.739. The relative viability ([12]; first compound 0.001 µM) was 0.956, the relative viability ([12]; first compound 0.003162 µM) was 1.12 and the relative viability ([12]; first compound 0.01 µM) was 1.02. It also gave a relative viability ([12]; first compound 0.03162 µM) of 0.74, a relative viability ([12]; first compound 0.1 µM) of 0.957 and a relative viability ([13]; first compound 0.001 µM) of 0.919. The relative viability ([13]; first compound 0.003162 µM) was 1.09, the relative viability ([13]; first compound 0.01 µM) was 1.17 and the relative viability ([13]; first compound 0.03162 µM) was 0.84. The relative viability ([13]; first compound 0.1 µM) was 0.801, the relative viability ([14]; first compound 0.001 µM) was 1.08 and the relative viability ([14]; first compound 0.003162 µM) was 1.41. For the same molecule, the relative viability ([14]; first compound 0.01 µM) was 1.26, the relative viability ([14]; first compound 0.03162 µM) was 1.2 and the relative viability ([14]; first compound 0.1 µM) was 1.08. For the same molecule, the relative viability ([15]; first compound 0.001 µM) was 0.903, the relative viability ([15]; first compound 0.003162 µM) was 1.31 and the relative viability ([15]; first compound 0.01 µM) was 1.17. The relative viability ([15]; first compound 0.03162 µM) was 0.66, the relative viability ([15]; first compound 0.1 µM) was 0.941 and the relative viability ([16]; first compound 0.001 µM) was 0.757. The relative viability ([16]; first compound 0.003162 µM) was 1.03, the relative viability ([16]; first compound 0.01 µM) was 0.91 and the relative viability ([16]; first compound 0.03162 µM) was 0.684. It also gave a relative viability ([16]; first compound 0.1 µM) of 0.688, a relative viability ([17]; first compound 0.001 µM) of 0.732 and a relative viability ([17]; first compound 0.003162 µM) of 0.622. It also gave a relative viability ([17]; first compound 0.01 µM) of 0.729, a relative viability ([17]; first compound 0.03162 µM) of 0.937 and a relative viability ([17]; first compound 0.1 µM) of 0.601. It also gave a relative viability ([18]; first compound 0.001 µM) of 1.09, a relative viability ([18]; first compound 0.003162 µM) of 1.16 and a relative viability ([18]; first compound 0.01 µM) of 1.34. It also gave a relative viability ([18]; first compound 0.03162 µM) of 0.879, a relative viability ([18]; first compound 0.1 µM) of 0.86 and a relative viability ([19]; first compound 0.001 µM) of 1.03. For the same molecule, the relative viability ([19]; first compound 0.003162 µM) was 1.18, the relative viability ([19]; first compound 0.03162 µM) was 0.919 and the relative viability ([19]; first compound 0.1 µM) was 0.9. The relative viability ([20]; first compound 0.003162 µM) was 1.16, the relative viability ([20]; first compound 0.01 µM) was 1 and the relative viability ([20]; first compound 0.03162 µM) was 0.797. The relative viability ([20]; first compound 0.1 µM) was 0.79, the relative viability ([21]; first compound 0.001 µM) was 1.03 and the relative viability ([21]; first compound 0.003162 µM) was 1.16. The relative viability ([21]; first compound 0.01 µM) was 1.27, the relative viability ([21]; first compound 0.03162 µM) was 0.91 and the relative viability ([21]; first compound 0.1 µM) was 0.949. For the same molecule, the relative viability ([22]; first compound 0.001 µM) was 0.967, the relative viability ([22]; first compound 0.003162 µM) was 1.08 and the relative viability ([22]; first compound 0.01 µM) was 0.924. It also gave a relative viability ([22]; first compound 0.03162 µM) of 0.81, a relative viability ([22]; first compound 0.1 µM) of 0.912 and a relative viability ([23]; first compound 0.001 µM) of 0.664. For the same molecule, the relative viability ([23]; first compound 0.003162 µM) was 0.814, the relative viability ([23]; first compound 0.01 µM) was 1.09 and the relative viability ([23]; first compound 0.03162 µM) was 0.639. The relative viability ([23]; first compound 0.1 µM) was 0.902.
